“Also recorded” adds a separate entry of the source. Read-outs that look alike come from different tables or passages of the source.
How the values were obtained:
[1] = system: K48 polyubiquitinated proteins; experiment: Western blot of drug-treated worm lysate with K48-linkage specific polyubiquitin antibody; assay type: cell-based, Schistosoma mansoni; details: worm lysate after 48 hr of treatment
Method: For drug treatment studies, 10 male adult worms (single or paired with females) were supplemented with either 0.1% DMSO or inhibitor (0.1% DMSO final). […]. After 48 hr, male parasites were separated from females using 0.25% tricaine in Basch Media 169, flash frozen in liquid nitrogen, and stored at −80°C until further processing. Male worm samples were homogenized with a pestle in 50 μL lysis buffer containing 2X sample buffer [0.471 M Tris (pH 6.7 with phosphoric acid), 20% glycerol, 5% SDS), protease inhibitor cocktail (Roche, cOmplete Mini, EDTA-free Tablets) and 10 mM DTT. The lysates were then sonicated on high for 5 min (30 sec on, 30 sec off) using a Bioruptor UCD-200. Lysates were centrifuged for 5 min at 10,000 g to remove debris. Total protein was measured using the Detergent Compatible Bradford Assay (Pierce). 50 μg of protein samples denatured in SDS Sample buffer (95°C for 5 min) were separated on a Bio-Rad 4–20% TGX Stain-Free gel along with Precision Plus Protein Dual Color Standards (Bio-Rad) as a marker. Proteins were then transferred to a nitrocellulose membrane (Bio-Rad). The membrane was blocked in a 1:5 solution of Li-Cor Odyssey Blocking buffer in PBST for 1 hr before being immunoblotted overnight at 4°C with 1:500 K48-linkage Specific Polyubiquitin Antibody (Cell Signaling Technology, 4289S) and 0.01 μg/mL mouse anti-actin antibody (1:10,000) (Developmental Studies Hybridoma Bank, JLA20) diluted in a 1:5 solution of Li-Cor Odyssey Blocking buffer in PBST. The membrane was washed 3x in TBST and then incubated in 1:5 Li-Cor Odyssey Blocking buffer containing the secondary antibodies (1:10,000 Li-Cor, 925–68071, goat anti-rabbit IRDye 680 RD, and 1:20,000 Li-Cor, 925–32280, goat anti-mouse IgM IRDye 800CW) for 1 hr at RT. The blot was washed in TBST 3x before being imaged on a LiCor Odyssey Infrared Imager.

[2] = system: adult S. mansoni worms; experiment: Treatment of adult S. mansoni worms in culture with inhibitors (attachment to tissue culture substrate, morphology; single 10 μM and dose-response EC50); assay type: cell-based, Schistosoma mansoni; details: for EC50: read-out: S. mansoni EC50; for effect on adult parasites: inhibitors of human targets
Method: Adult S. mansoni (NMRI strain) (6–7 weeks post-infection) worms were harvested from infected female Swiss Webster mice by hepatic portal vein perfusion using 37°C DMEM (Mediatech, Manassas, VA), 8% Horse Serum, and heparin.
Roughly 5 adult worm pairs were placed in 3mL Basch medium in a 12-well culture vessel, and incubated at 37°C, 5% CO2 for the length of the experiment. Compound was administered at D0, D1, and D2, media and drug refreshed every 24 hr. Worms were then allowed to remain in culture until D5, where a final assessment of worm attachment to tissue culture substate was made by light microscopy. Observations on movement and morphology were also recorded. A negative control (0.1% DMSO) and positive control (PZQ; 10 μM in 0.1% DMSO) were included in each experiment, and each experiment was repeated in triplicate for validation. For compounds that caused complete detachment in replicate experiments, the treatment was expanded to three concentrations (10 μM, 5 μM, and 1 μM) following the same treatment schedule and controls as detailed above. […] Each titration experiment was performed in triplicate according to the treatment regimen described above, using DMSO and PZQ as appropriate controls. Morphologies and motility were assessed by light microscopy, and dose-response curves were calculated using the primary readout of parasite attachment to tissue culture substrate in GraphPad Prism. […]
[…] Values were calculated using Prism.

[3] = system: adult S. mansoni worms; set-up: method as in PMID 32973031; details: schistosomes in vitro; cited from earlier work
[4] = biological target: S. mansoni p97 (Smp_018240) (Schistosoma mansoni, UniProt G4M0P7); experiment: biochemical; details: for Fold Selectivity: H. sapiens vs S. mansoni p97 IC50
Method: E. coli BL21 (DE3) containing the desired plasmid were grown in LB medium containing […] kanamycin while shaking at 37 °C to an OD600 of 0.6–0.8. The temperature was reduced to 18°C and 0.8 mM isopropyl-beta-D-thiogalactopyranoside (IPTG) was added. The bacterial culture was harvested 16hr later by centrifugation. The resulting pellet was suspended in 60 mL lysis buffer/2L bacterial culture [20 mM Tris (pH 7.4), 300 mM NaCl, 5 mM MgCl2, 20 mM imidazole, 1% Triton X-100, 1 mg/mL lysozyme, 10% glycerol, 3 mM β-mercaptoethanol, 0.2 mM PMSF, and protease inhibitor tablet (Roche)]. […] The lysate was centrifuged at 40,000 × rpm for 35 min at 4°C. The resulting supernatant was incubated with Ni-NTA beads equilibrated to lysis buffer for 1 hr at 4°C before being loaded onto a gravity column. The bead bed was washed with wash buffer [20 mM Tris (pH 7.4), 500 mM NaCl, 5 mM MgCl2, 40 mM imidazole, 0.05% Triton X-100, 10% glycerol, 3 mM β-mercaptoethanol, 0.2 mM PMSF, 0.001 mg/mL Aprotinin, and 0.002 mg/mL Leupeptin], then eluted in the same buffer with 250 mM imidazole in wash buffer. Fractions containing p97 were concentrated using Pierce Protein Concentrators (100k MWCO) and loaded onto a gel-filtration column (Superdex 200PG) and eluted using SEC buffer [20 mM Tris (pH 7.4), 180 mM NaCl, 5 mM MgCl2, and 10% glycerol] at 0.5 mL/min flow rate on a BioRad NGC Chromatography System. Fractions corresponding to an apparent molecular weight of 500 – 600 kDa were collected and analyzed by 4–20% SDS/PAGE to evaluate purity. Concentration was determined using a BSA standard. Fractions containing purified protein were aliquoted, snap frozen in liquid nitrogen, and stored at −80 °C until use.
For manual ATP consumption assays, 1 μM p97 was incubated with 1% DMSO or inhibitor (1% DMSO final) in assay buffer [50 mM Tris (pH 7.5), 20 mM MgCl2, 1 mM EDTA, 0.5 mM tris(2-carboxyethyl)phosphine (TCEP)] for 5 minutes prior to the addition of 20 μM ATP in a 384-well plate for a total reaction volume of 10 μL, and a final concentration of 500nM enzyme and 10 μM ATP. The reaction was allowed to proceed for 50 minutes at room temperature before adding equivalent volume of Kinase-Glo Plus reagent (Promega), and a further incubation of 10 minutes in the dark.
IC50 values were calculated using GraphPad Prism.

[5] = system: HepG2 cells; experiment: HepG2 cytotoxicity assay (Cell Titer Glo 2.0); assay type: cell-based, human
Method: HepG2 cells (ATCC) were plated at 2500 cells/well in 50 μL/well, dispersing cells using a 25g needle to break up clumps prior to plating. Plates were incubated for 24hr at 37C, 5% CO2. Following 24hr, 50 μL media containing 0.6% DMSO was added to a set of wells on one plate. The plate and Cell Titer Glo 2.0 reagent were brought to RT. A T=0 read was taken by adding 40 μL reagent/well, rocking the plate at 100 rpm for 2 min, then reading luminescence ~10 min later. […] 50 μL 2x concentrated compound was added to wells containing cells in 50 μL 24 hr after plating. Concentrations were tested in triplicate at following values: 30, 10, 3.3, 1.1, 0.37, 0.12, and 0.04 μM. Plates were incubated for 72 hr at 37C, 5% CO2. Following equilibration to room temperature, 40 μL undiluted reagent was added to each well, the plate rocked at 100 rpm for 2 min and then read for luminescent signal ~10 min later.
Values are plotted in excel and the 50% point determined by interpolation. Values were revisualized in Prism.

[6] = biological target: T1, H. sapiens p97 (P55072) (Homo sapiens, UniProt P55072); experiment: p97 ATPase activity, ATP consumption assay (Kinase-Glo), IC50 / counter screen; assay type: biochemical
T1 construct: 6xHis (C); made in house; host or cells: E. coli BL21 (DE3)

[7] = recombinant enzyme, Kinase-Glo, Fig. 3D
[8] = recombinant enzyme, Kinase-Glo, Fig. 3D, read-out: S. mansoni (IC50)

T1 sequence (P55072 whole entry): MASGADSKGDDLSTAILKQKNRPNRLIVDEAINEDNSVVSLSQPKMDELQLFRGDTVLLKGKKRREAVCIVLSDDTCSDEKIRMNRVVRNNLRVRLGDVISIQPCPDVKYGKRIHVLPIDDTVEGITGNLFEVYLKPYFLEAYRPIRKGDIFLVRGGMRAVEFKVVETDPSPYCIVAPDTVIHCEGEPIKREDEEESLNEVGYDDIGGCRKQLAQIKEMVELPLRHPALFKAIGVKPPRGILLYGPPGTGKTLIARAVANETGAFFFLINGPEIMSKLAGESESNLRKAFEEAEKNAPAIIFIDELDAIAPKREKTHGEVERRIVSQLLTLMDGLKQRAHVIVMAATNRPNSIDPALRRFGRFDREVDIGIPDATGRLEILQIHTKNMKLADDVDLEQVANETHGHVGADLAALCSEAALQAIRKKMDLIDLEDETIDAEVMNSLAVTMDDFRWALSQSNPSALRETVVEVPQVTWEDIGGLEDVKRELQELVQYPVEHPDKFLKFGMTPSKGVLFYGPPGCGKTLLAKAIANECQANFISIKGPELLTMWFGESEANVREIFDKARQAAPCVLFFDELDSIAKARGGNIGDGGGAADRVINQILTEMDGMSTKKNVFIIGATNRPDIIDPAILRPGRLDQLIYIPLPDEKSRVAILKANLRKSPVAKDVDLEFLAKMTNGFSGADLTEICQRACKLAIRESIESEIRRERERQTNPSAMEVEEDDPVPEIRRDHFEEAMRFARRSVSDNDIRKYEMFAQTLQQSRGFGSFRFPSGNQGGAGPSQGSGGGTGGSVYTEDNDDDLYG
S. mansoni p97 (Smp_018240), sequence (G4M0P7 entry or part of it): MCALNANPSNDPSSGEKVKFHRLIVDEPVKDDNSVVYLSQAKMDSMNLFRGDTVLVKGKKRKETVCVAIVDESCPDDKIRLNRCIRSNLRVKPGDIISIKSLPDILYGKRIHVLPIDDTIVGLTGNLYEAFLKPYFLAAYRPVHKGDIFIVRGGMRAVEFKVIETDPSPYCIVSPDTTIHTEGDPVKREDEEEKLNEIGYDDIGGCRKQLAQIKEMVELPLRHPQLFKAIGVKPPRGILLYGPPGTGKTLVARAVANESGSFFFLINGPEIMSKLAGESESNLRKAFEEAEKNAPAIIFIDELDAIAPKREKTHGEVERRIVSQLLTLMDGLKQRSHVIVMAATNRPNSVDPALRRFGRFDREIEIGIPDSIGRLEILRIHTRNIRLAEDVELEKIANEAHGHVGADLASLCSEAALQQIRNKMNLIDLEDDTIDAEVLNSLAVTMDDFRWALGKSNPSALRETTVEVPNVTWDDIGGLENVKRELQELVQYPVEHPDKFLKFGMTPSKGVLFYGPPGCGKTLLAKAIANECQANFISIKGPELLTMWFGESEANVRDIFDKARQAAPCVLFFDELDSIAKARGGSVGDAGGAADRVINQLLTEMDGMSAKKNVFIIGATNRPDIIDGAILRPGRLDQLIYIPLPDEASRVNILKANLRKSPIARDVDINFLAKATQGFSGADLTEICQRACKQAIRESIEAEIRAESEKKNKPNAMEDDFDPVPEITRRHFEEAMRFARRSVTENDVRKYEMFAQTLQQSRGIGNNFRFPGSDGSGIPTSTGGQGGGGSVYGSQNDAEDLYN

Structure (SMILES)	accumulation of K48 polyubiquitinated proteins by western blot [1]	parasite death in vitro [3]	IC50 [6, 7]	effect on adult parasites ([2]; 10 μM)	IC50 [4, 8]	also measured
Cc1cc2c(C(N)=O)cccc2n1-c1nc2c(c(NCc3ccccc3)n1)COCC2 [CB-5083, reference compound]	accumulation of proteins targeted for proteasome-mediated degradation	sub-micromolar				EC50 ([2]; worms, Suppl. Fig. 11E): 360 nM; Fold Selectivity ([4]; Suppl. Fig. 11D): 2.0; selectivity for the schistosome enzyme over its human counterpart ([4]; S. mansoni vs H. sapiens p97 IC50): ~ 2 fold; GI50 ([5]; HepG2, 72 hr, 50% growth inhibition normalized to time = 0, Suppl. Fig. 11A, read-out: GI50): 310 nM; IC50 ([5]; HepG2, 72 hr, 50% growth inhibition relative to control, Suppl. Fig. 11A, read-out: IC50): 410 nM; GI50 ([5]; HepG2, Suppl. Fig. 11E, read-out: HepG2 GI50): 310 nM; IC50 ([5]; HepG2, Suppl. Fig. 11E, read-out: HepG2 IC50): 410 nM
O=C(C#Cc1ccncc1)Nc1ccc2oc(-c3ccccn3)nc2c1 [Compound 739, N-(2-(pyridin-2-yl)benzo[d]oxazol-5-yl)-3-(pyridin-4-yl)propiolamide]	accumulation of K48 polyubiquitin moieties					IC50 ([6]; Hs p97, 100 μM – 1 nM, Suppl. Fig. 9C): 320 ± 26 nM; time to detachment of adult worms in culture ([2]; 10 μM): ≤ 24 h; EC50 ([2]; Schistosoma mansoni, adult parasites, fraction of worms attached, 72 hours of drug treatment, in culture until D5, 50 μM - 10 nM, Suppl. Fig. 9C): 1300 nM; effect on adult worms ([2]; benzoxazole propiolamide series, 10 μM, treated 72 hours, monitored until D5): death of the parasites; Fold Selectivity ([4]; Suppl. Fig. 9C): 2.1; IC50 ([4]; schistosome p97 enzyme, read-out: IC50): 150 nM; GI50 ([5]; Homo sapiens, HepG2, 72 h): 850 nM; IC50 ([5]; Homo sapiens, HepG2, 72 h): 1200 nM; GI50 ([5]; Homo sapiens, HepG2, read-out: HepG2 GI50): 850 nM; IC50 ([5]; Homo sapiens, HepG2, read-out: HepG2 IC50): 1200 nM
c1ccc(CNc2nc(NCc3ccccc3)c3ccccc3n2)cc1 [DbeQ, reference compound]	did not observe the same accumulation		910 ± 390 nM	activity on the worms	12000 nM	
CC1(C)C(N(O)C(=O)Nc2ccc(Cl)cc2)N(c2ccc(Cl)cc2)C(=O)N1CC(=O)N/N=C/C=C/c1ccc([N+](=O)[O-])o1 (stereo not shown) [Eeyarestatin I, reference compound]	did not see significant increases in K48 abundance			effective		
COc1cccc2c(NCc3ccccc3)nc(-n3c(N)nc4ccccc43)nc12 [ML240, reference compound]	did not observe the same accumulation		330 ± 61 nM	killed parasites quickly	66 ± 9.7 nM	selectivity for the schistosome enzyme over its human counterpart [4]: ~ 5 fold
Cc1cc(OCc2nnc(SC3CCCC3)n2-c2cccnc2)ccc1-c1ccc(S(C)(=O)=O)cc1 [NMS-873]	accumulation of proteins targeted for proteasome-mediated degradation	sub-micromolar			230 ± 75 nM	
CC(C)N1CCN(CCNC2CCN(c3cccc(-c4cc5cc(F)ccc5[nH]4)c3)CC2)CC1 [UPCDC-30245, reference compound]	did not see significant increases in K48 abundance		970 ± 67 nM	effective	4100 nM	selectivity between schistosome and human p97 [4]: selective in favor of the human enzyme; also recorded: decreased potency
CC(C)C[C@H](NC(=O)[C@H](Cc1ccccc1)NC(=O)c1cnccn1)B(O)O [bortezomib]		killed				

Source: doi:10.1101/2025.03.14.643303, “A genome-scale drug discovery pipeline uncovers new therapeutic targets and a unique p97 allosteric binding site in Schistosoma mansoni” (bioRxiv, 2025)
